Results on five compounds are retold here after article PMC4965013, “Open Source Drug Discovery with the Malaria Box Compound Collection for Neglected Diseases and Beyond” (PLoS Pathogens, 2016).

Data set [1] relates to S. mansoni newly transformed schistosomula (NTS). Details: method as in ref [91] (a number printed in a supplementary file, which may have a reference list of its own: not looked up in the article's list). The following applies: ref [91]; read-out: Schistosoma mansoni newly transformed schistosomula EC50 J. Keiser; cited from earlier work.
Data set [2] deals with HIV-1 JR-FL or HIV-1 NL4-3 viruses. In words: HIV-1 viral production p24 ELISA. In kind it is cell-based. Here is the method: Columns FK-GB, Moore group (data presented first in this paper). HIV and HIV-producing cell lines, toxicity and viral suppression. […] MMV compounds were incubated with HIV-1 JR-FL or HIV-1 NL4-3 pseudoviruses and U87-CD4-CCR5 or U87-CD4-CXCR4 cells (obtained through the NIH AIDS Reagent Program, Division of AIDS, NIAID, NIH: U87 CD4+CCR5+ Cells from Dr. HongKui Deng and Dr. Dan R. Littman) respectively for 3 days. Cells were assayed for infection by luciferase production (Bright-Glo Luciferase Substrate, Promega) and cell viability by MTT assay. […] MMV compounds were next incubated with HIV-1 JR-FL or HIV-1 NL4-3 viruses and U87-CD4-CCR5 or U87-CD4-CXCR4 cells respectively for 7 days. Cell supernatants were assayed for viral production by p24 ELISA [153] and cell viability by MTT assay. […] DMSO (5%) was completely toxic to all cells (based on visual inspection) and served as the positive control for MTT assays.

The test system of data set [3] is P. berghei ookinetes. Details: method as in ref [74] (a number printed in a supplementary file, which may have a reference list of its own: not looked up in the article's list). The following applies: 1µM; ref [74]; cited from earlier work.
Data set [4] relates to HepG2-A16-CD81EGFP cells. The following applies: 50uM; ref [58, 65]; cited from earlier work.
The test system of data set [5] is P. berghei liver stages in HepG2. In words: P. berghei liver stage luciferase Hanson. The following applies: Plasmodium berghei, read-out: P. berghei Liver Stage % of control infection (Luciferase). The format is cell-based. As for the experimental part:
Columns AS-AT: Hanson group (data presented first in this paper). P. berghei liver stage growth. Phenotypic analysis of Malaria Box compound activity against P. berghei liver stages and assay development will be reported elsewhere (Medina Vera, Itoe, et al; in preparation). Methods: Screening was carried out in 96 well plates, with 10,000 HepG2 cells (ATCC) seeded one day prior to infection with 10,000 P. berghei-Luciferase (676m1cl1) sporozoites per well in the presence of 1:300 Fungizone (Life Technologies). Medium was replaced 2 hours post-infection (hpi) and the Malaria Box compounds were added at a final concentration of 5 µM at this time. At 48 hpi, parasite load, by way of luminescence, was quantified after a 10 minute incubation with 50 µl of 150 µg/ml D-Luciferin on a Tecan Infinite M200 plate reader. Plates included 8 wells of DMSO (compound vehicle and positive control for infection), along with 8 non-infected wells serving as negative controls. Luminescence values for individual wells were normalized to the mean of the in-plate DMSO controls, which was set at 100. […] The normalized mean of non-infected control wells was 2.5, with a standard deviation of 2. Data presented are the average of 3 independent experiments, each conducted in technical triplicate. Toxicity of the compounds was determined at 66 hpi based on HepG2 cell abundance in 9 non-overlapping images per well, generated with a Molecular Devices IXM using a 40x objective. Briefly, EEFs were identified based on 2E6 immunolabeling and used to mask widefield images of Hoechst 33452-labeled nuclei, and the percentage of each 2,160 x 2,160 pixel image occupied by Hoechst^+ pixels, representing HepG2 nuclei only, was then determined for all images in CellProfiler. Data is from one representative experiment. The mean area occupied by HepG2 nuclei in the 8 DMSO controls wells was set to 1, and used to normalize those treated with compounds.

Data set [6] deals with A. ceylanicum L3 larvae. In words: A. ceylanicum L3 larvae J. Keiser. The format is cell-based, Ancylostoma ceylanicum. The following applies: 200µM.
Data set [7] concerns Mycobacterium marinum in Acanthamoeba castellanii. As to the kind of experiment: A. castellanii-M. marinum infection assay. In kind it is cell-based. The following applies: 10µM. Here is the method: Columns FA-FC: Soldati Group (data presented first in this paper). M. marinum, D. discoideum, and Acathamoeba castellani assays. Each compound of the Malaria Box has been assayed at 10 µM in all three assays. First, the antibiotic activity was assayed directly against Mycobacterium marinum in its culture medium. Second, the toxicity and growth inhibitory effect of the compounds was assayed against the amoeba Dictyostelium discoideum in its culture medium. Finally, the “in cellulo” anti-infective activity of each compound was tested using the intracellular infection system Acanthamoeba castellanii-M. marinum. Values have been normalized using the DMSO carrier. For each assay, values have been normalized to 1.00 using the DMSO carrier, which has no detectable effect on D. discoideum nor M. marinum growth, while rifabutin was used as positive control for the antibiotic assay and the infection assay, as it abolishes M. marinum growth (normalized value under 0.10) in broth at 10 µM and intracellularly at 30 µM [150].

Setting [8] is: Human immunodeficiency virus 1, NL43, read-out: HIV R5 % inhibition rep3 in U87 (P24 Washout).
[9] abbreviates: Human immunodeficiency virus 1, NL43, read-out: HIV X4 % inhibition rep3 in U87 (P24 NO Washout).
The mark [10] stands for this setting: Human immunodeficiency virus 1, NL43, read-out: HIV X4 %inhibition rep3 in U87 (P24 Washout).
The mark [11] stands for this setting: Human immunodeficiency virus 1, NL43, read-out: HIV R5 % inhibition rep3 in U87 (P24 NO Washout).

pEC50: −log10 of the molar value. Like-named read-outs stand apart in the source and are kept apart here.

Consider `CCN(CC)c1cc(C)c2cc(NC(=O)c3cccc(OC)c3)ccc2n1` [MMV000498], for which the pEC50 in data set [1] is below 4.48. In addition, the inhibition at 5 µM in data set [2] (setting [8]) was -9%; in data set [2] (setting [9]) it was -118%; in data set [2] (setting [10]), -40%. In data set [3], the “P. berghei ookinete assay % inhibition” value is -7.5%. Further, the “HepG2 toxicity rep 1” value in data set [4] is 0.453%. Moreover, the “HepG2 toxicity rep 2” value in data set [4] is listed as -1.24%. In data set [5], the activity at 5 µM was determined as 63%. Besides, the “Anyclostoma ceylanicum L3 larvae effect (%)” value in data set [6] is 0%. The “Mycobacterium marinum growth in Acanthamoeba castellanii DMSO=1 Infection Assay” value (“Mycobacterium marinum growth” below) in data set [7] stood at 0.94.

Take `CCN1CCN(c2cc(C)c3cc(NC(=O)c4ccc(OC)c(OC)c4)ccc3n2)CC1` [MMV019074]: in data set [1], the pEC50 is below 4.48. Besides, the inhibition at 5 µM in data set [2] (setting [8]) came to 7%; in data set [2] (setting [9]) it was 14%; in data set [2] (setting [10]) it was 6.64%. Also, the “P. berghei ookinete assay % inhibition” value in data set [3] is on record as -2.9%. Besides, the “HepG2 toxicity rep 1” value in data set [4] is listed as 1.64%. Further, the “HepG2 toxicity rep 2” value in data set [4] is -0.0766%. In addition, the activity at 5 µM in data set [5] turned out to be 105%. Besides, the “Anyclostoma ceylanicum L3 larvae effect (%)” value in data set [6] is recorded as 0%. Further, the “Mycobacterium marinum growth” value in data set [7] was found to be 0.93.

With `CCOC(=O)c1cnc2ccc(OC)cc2c1NCc1ccccc1` [MMV665813], the pEC50 in data set [1] is below 4.48. In addition, the inhibition at 5 µM in data set [2] (setting [11]) is -50%; in data set [2] (setting [8]), -13%; in data set [2] (setting [9]), 20%; in data set [2] (setting [10]), 16%. Moreover, in data set [3], the “P. berghei ookinete assay % inhibition” value is -6.8%. The “HepG2 toxicity rep 1” value in data set [4] was -1.52%. Besides, the activity at 5 µM in data set [5] was found to be 66%. Also, the “Anyclostoma ceylanicum L3 larvae effect (%)” value in data set [6] is 0%. Moreover, the “Mycobacterium marinum growth” value in data set [7] is 1.26.

For the compound `COc1cc2cc(C(=O)Nc3ccccc3)c(N)nc2cc1OC` [MMV006767], the pEC50 in data set [1] is below 4.48. Also, the inhibition at 5 µM in data set [2] (setting [11]) is 103%; in data set [2] (setting [8]), 9%; in data set [2] (setting [9]), 104%; in data set [2] (setting [10]), 56%. Moreover, in data set [3], the “P. berghei ookinete assay % inhibition” value is on record as 8.6%. In addition, the “HepG2 toxicity rep 1” value in data set [4] is listed as 82%. The “HepG2 toxicity rep 2” value in data set [4] was 90%. In data set [5], the activity at 5 µM is 53%. Also, the “Anyclostoma ceylanicum L3 larvae effect (%)” value in data set [6] turned out to be 0%. Also, the “Mycobacterium marinum growth” value in data set [7] came to 1.18.

As to `COc1ccc(C(=O)Nc2ccc3nc(N4CCCCC4)cc(C)c3c2)cc1OC` [MMV019758], the pEC50 in data set [1] was below 4.48. Further, the inhibition at 5 µM in data set [2] (setting [11]) came to 31%; in data set [2] (setting [8]) it was 83%; in data set [2] (setting [9]), 68%; in data set [2] (setting [10]), 24%. In data set [3], the “P. berghei ookinete assay % inhibition” value was -18.9%. Also, in data set [4], the “HepG2 toxicity rep 1” value is -1%. Moreover, in data set [4], the “HepG2 toxicity rep 2” value is -1.21%. Further, the activity at 5 µM in data set [5] turned out to be 74%. In addition, the “Anyclostoma ceylanicum L3 larvae effect (%)” value in data set [6] was 0%. For the same compound, in data set [7], the “Mycobacterium marinum growth” value amounted to 1.23.

The pEC50 is the negative decadic logarithm of the EC50, by convention in mol/L. In general, inhibition refers to the drop in the measured response relative to a control, in per cent.
